Measurements from US20250144069A1, “BILOBALIDE DERIVATIVE COMPOUNDS FOR TREATING NEUROLOGICAL DISEASES AND CANCERS” (The Chinese University of Hong Kong, priority 2023, published 2025).
Like-named read-outs stand apart in the source and are kept apart here.

Legend:
Assay type in all cases: cell-based, human
[1] = Single-dose CCK-8 cell viability screening (adherent cells); conditions: average of A549 and Jurkat % viability, 50 uM, 48 h; for viability at 50 µM: Homo sapiens
Procedure: (§1) In this example, the anti-cancer properties of the BB analogues described in Table 1d were evaluated. Single-dose screening approach is used for initial testing to assess the cytotoxic effect of the BB analogues (also referred to as ‘BB compounds’) on Jurkat cells (human T cell leukaemia cells) and A549 cells (human lung cancer cells).
(§2) Method for Adherent Cells (A549 Cells)
(§3) In this example, 5000 cells/100 uL were seeded in 96-well plates and incubate at 37° C.+5% CO2 overnight. Media were replaced with 100 uL of 50 uM compound per well in 6 replicates. The following controls were prepared.
(§4) Blank control: 100 uL 0.1% DMSO in media with no cells per well.
(§5) Positive control: 100 uL of 10 uM 5-flurouracil per well.
(§6) Negative control: 100 uL of 0.1% DMSO in media per well.
(§7) Each 96-well plate included 7 compounds and the complete set of controls (in 6 replicates).
(§8) Cells were incubated at 37° C.+5% CO2 for 46 hours. 10 uL of CCK8 solution was added to each well. Cells were then incubated at 37° C.+5% CO2 for 2 hours. Absorbance at 450 nm was measured using a multiplate reader.
(§9) Viability was calculated using the equation: […]
(§10) The benchmark in Table 2 was used to define the activities of each compound.

A549 cells = assay: as above; conditions: for viability at 50 µM: Homo sapiens, A549, 48 h, read-out: % Viability (50 uM, 48 h) A549
Procedure: as §1, §2, §3, §4, §5, §6, §7, §8, §9, §10

Jurkat cells = assay: Single-dose CCK-8 cell viability screening (suspension cells); conditions: for viability at 50 µM: Homo sapiens, Jurkat, 48 h
Procedure: as §1
Method for Suspension Cells (Jurkat Cells)
5000 cells/90 uL were seeded in 96-well plates. 10 uL of 500 uM compound (10×) was added to each well in 6 replicates. The following controls were prepared.
Blank control: 10 uL 1% DMSO in media with no cells per well.
Positive control: 10 uL of 100 uM 5-flurouracil (10×) per well.
Negative control: 10 uL of 1% DMSO in media (10×) per well.
Each 96-well plate included 7 BB analogues and the complete set of controls (in 6 replicates).
as §8, §9, §10

[2] = Jurkat cells, 50 uM, CCK-8, read-out: % Viability (50 uM, 48 h) Jurkat
[3] = read-out: % Viability (50 uM, 48 h) Jurkat

Row | SMILES | viability at 50 µM ([1]; A549, 48 h) | viability at 50 µM (A549 cells; A549 cells, 50 uM, 48 h, CCK-8) | viability at 50 µM (Jurkat cells; [2]) | other results
1 | CC(C)(C)[C@]1(O)C[C@@H]2OC(=O)C[C@@]23C(=O)O[C@@H]2N(CC4COC4)C(=O)[C@H](OC(=O)c4ccccc4)[C@]213 [DW191, (3aS,5aS,8R,8aS,9R,10aS)-9-(tert-butyl)-6-(1-oxetan-3-ylmethyl)-9-hydroxy-2,4,7-trioxooctahydro-4H,9H-furo [3″,2″:2′,3′]cyclopenta [1′,2′:3,4]furo [2,3-b]pyrrol-8-yl benzoate] | 103% | 101% | 105% | 
2 | CC(C)(C)[C@]1(O)C[C@@H]2OC(=O)C[C@@]23C(=O)O[C@@H]2N(c4ccccc4)C(=O)[C@H](O)[C@]213 [JW116, (3aS,5aS,8R,8aS,9R,10aS)-9-(tert-butyl)-8,9-dihydroxy-6-phenyltetrahydro-4H,9H-furo[3″,2″:2′,3′]cyclopenta[1′,2′:3,4]furo[2,3-b]pyrrole-2,4,7(3H,8H)-trione] | 91.2% |  |  | viability at 50 µM (A549 cells): 77.7%; viability at 50 µM (Jurkat cells; [3]): 105%
3 | CC(C)(C)[C@]1(O)C[C@@H]2OC(=O)C[C@@]23C(=O)O[C@@H]2N(c4ccc(N)cc4)C(=O)[C@H](OC(=O)c4ccccc4)[C@]213 [XBB-037′] |  |  |  | Average (%) [1]: 104.22%; % Viability (50 uM, 48 h) A549 (A549 cells; A549 cells, 50 uM, 48 h, CCK-8): 110.02%; % Viability (50 uM, 48 h) Jurkat (Jurkat cells; Jurkat cells, 50 uM, CCK-8, 50 µM): 98.42%
4 | CC(C)(C)[C@]1(O)C[C@@H]2OC(=O)C[C@@]23C(=O)O[C@@H]2NC(=O)[C@H](OC(=O)c4ccccc4)[C@]213 [XBB-004, (3aS,5aS,8R,8aS,9R,10aS)-9-(tert-butyl)-9-hydroxy-2,4,7-trioxooctahydro-4H,9H-furo[3″,2″:2′,3′]cyclopenta[1′,2′:3,4]furo[2,3-b]pyrrol-8-yl benzoate] |  |  |  | viability at 50 µM [1]: 96.7%; viability at 50 µM (A549 cells): 98.5%; viability at 50 µM (Jurkat cells; [3]): 95%
5 | CC(=O)O[C@H]1C(=O)NC(N)=N[C@H]2OC(=O)[C@]34CC(=O)O[C@H]3C=C(C(C)(C)C)[C@@]214 [XBB-073] | 86.5% | 66.5% | 107% | 
6 | CC(C)(C)[C@]1(O)C[C@@H]2OC(=O)C[C@@]23C(=O)O[C@@H]2N(c4ccc5ccccc5c4)C(=O)[C@H](OC(=O)c4ccccc4)[C@]213 [JW094, (3aS,5aS,8R,9R,10aS)-9-(tert-butyl)-9-hydroxy-6-(naphthalen-2-yl)-2,4,7-trioxodecahydrofuro [3″,2″:2′,3′]cyclopenta [1′,2′:3,4]furo [2,3-b]pyrrol-8-yl benzoate] | 76.7% | 76.5% | 76.9% | 
7 | CC(C)(C)[C@]1(O)C[C@@H]2OC(=O)C[C@@]23C(=O)O[C@@H]2N(c4ccc(O)cc4)C(=O)[C@H](OC(=O)c4ccccc4)[C@]213 [JW103, (3aS,5aS,8R,9R,10aS)-9-(tert-butyl)-6-(4-hydroxyphenyl)-9-hydroxy-2,4,7-trioxodecahydrofuro [3″,2″:2′,3′]cyclopenta [1′,2′:3,4]furo [2,3-b]pyrrol-8-yl benzoate] | 92.2% | 102% | 82.2% | 
8 | CC(=O)O[C@H]1C(=O)N(CCn2cc3ccccc3c2C)[C@H]2OC(=O)[C@]34CC(=O)O[C@H]3C=C(C(C)(C)C)[C@@]214 [XBB-054] | 90.9% | 88.8% | 93% | 
9 | C=C(C)[C@@]1(C)C[C@@H]2OC(=O)C[C@@]23C(=O)O[C@@H]2NC(=O)[C@H](O)[C@]213 [XBB-013] |  |  |  | viability at 50 µM [1]: 104%; viability at 50 µM (A549 cells): 100%; viability at 50 µM (Jurkat cells; [3]): 107%
10 | CC(C)(C)[C@]1(O)C[C@@H]2OC(=O)C[C@@]23C(=O)O[C@@H]2N(CCN4CCNCC4)C(=O)C(OC(=O)c4ccccc4)[C@]213 (stereo in doubt) [XBB-028, 4-(2-((3aS,5aS,8S,8aS,9R,10aS)-8-(benzoyloxy)-9-(tert-butyl)-9-hydroxy-2,4,7-trioxohexahydro-4H,9H-furo [3″,2″:2′,3′]cyclopenta [1′,2′:3,4]furo [2,3-b]pyrrol-6(5aH)-yl)ethyl)piperazin-1-ium chloride] | 89.7% | 88.8% | 90.5% | 
11 | CC(C)(C)OC(=O)N1CCC(CCN2C(=O)[C@H](OC(=O)c3ccccc3)[C@@]34[C@@H]2OC(=O)[C@@]32CC(=O)O[C@H]2C[C@@]4(O)C(C)(C)C)CC1 [XBB-023, tert-butyl 4-(2-((3aS,5aS,8R,8aS,9R,10aS)-8-(benzoyloxy)-9-(tert-butyl)-9-hydroxy-2,4,7-trioxohexahydro-4H,9H-furo[3″,2″:2′,3′]cyclopenta[1′,2′:3,4]furo[2,3-b]pyrrol-6(5aH)-yl)ethyl)piperidine-1-carboxylate] | 71.7% | 72.1% | 71.3% | 
12 | Cc1ccc(N2C(=O)[C@H](OC(=O)c3ccccc3)[C@@]34[C@@H]2OC(=O)[C@@]32CC(=O)O[C@H]2C[C@@]4(O)C(C)(C)C)cc1 [P-30, (3aS,5aS,8R,9R,10aS)-9-(tert-butyl)-9-hydroxy-2,4,7-trioxo-6-(toluyl)octahydro-4H,9H-furo [3″,2″:2′,3′]cyclopenta [1′,2′:3,4]furo [2,3-b]pyrrol-8-yl benzoate] | 59.1% | 56.9% | 61.3% | 
13 | CN1C(=O)[C@H](OC(=O)c2ccccc2)[C@@]23[C@@H]1OC(=O)[C@@]21CC(=O)O[C@H]1C[C@@]3(O)C(C)(C)C [DW168, (3aS,5aS,8R,8aS,9R,10aS)-9-(tert-butyl)-9-hydroxy-6-methyl-2,4,7-trioxooctahydro-4H,9H-furo [3″,2″:2′,3′]cyclopenta [1′,2′:3,4]furo[2,3-b]pyrrol-8-ylbenzoate] | 103% | 105% | 101% | 
14 | CC(C)(C)[C@]1(O)C[C@@H]2OC(=O)C[C@@]23C(=O)O[C@@H]2N(c4ccccc4)C(=O)[C@H](OC(=O)c4ccccc4)[C@]213 [XBB-034, (3aS,5aS,8R,8aS,9R,10aS)-9-(tert-butyl)-9-hydroxy-2,4,7-trioxo-6-phenyloctahydro-4H,9H-furo[3″,2″:2′,3′]cyclopenta [1′,2′:3,4]furo[2,3-b]pyrrol-8-yl benzoate] |  |  |  | viability at 50 µM [1]: 72.5%; viability at 50 µM (A549 cells): 56%; viability at 50 µM (Jurkat cells; [3]): 89.1%
15 | COc1ccc(N2C(=O)[C@H](OC(=O)c3ccccc3)[C@@]34[C@@H]2OC(=O)[C@@]32CC(=O)O[C@H]2C[C@@]4(O)C(C)(C)C)cc1 [JW093, (3aS,5aS,8R,9R,10aS)-9-(tert-butyl)-9-hydroxy-6-(4-methoxyphenyl)-2,4,7-trioxodecahydrofuro [3″,2″:2′,3′]cyclopenta [1′,2′:3,4]furo [2,3-b]pyrrol-8-yl benzoate] | 67.5% | 68.7% | 66.3% | 
16 | CC(C)(C)OC(=O)N1CCC(CCCN2C(=O)[C@H](OC(=O)c3ccccc3)[C@@]34[C@@H]2OC(=O)[C@@]32CC(=O)O[C@H]2C[C@@]4(O)C(C)(C)C)CC1 [XBB-025] | 91.7% | 100% | 83.3% | 
17 | CC(C)(C)[C@]1(O)C[C@@H]2OC(=O)C[C@@]23C(=O)O[C@@H]2N(CC4CCN(C(=O)c5ccc6c(c5)OCCO6)CC4)C(=O)[C@H](OC(=O)c4ccccc4)[C@]213 [XBB-045, (3aS,5aS,8R,8aS,9R,10aS)-9-(tert-butyl)-6-((1-(2,3-dihydrobenzo[b][1,4]dioxine-6-carbonyl)piperidin-4-yl)methyl)-9-hydroxy-2,4,7-trioxooctahydro-4H,9H-furo [3″,2″:2′,3′]cyclopenta [1′,2′:3,4]furo[2,3-b]pyrrol-8-yl benzoate] | 85.9% | 87% | 84.8% | 
18 | CC(=O)Nc1ccc(N2C(=O)[C@H](OC(=O)c3ccccc3)[C@@]34[C@@H]2OC(=O)[C@@]32CC(=O)O[C@H]2C[C@@]4(O)C(C)(C)C)cc1 [XBB-035, (3aS,5aS,8R,8aS,9R,10aS)-6-(4-acetamidophenyl)-9-(tert-butyl)-9-hydroxy-2,4,7-trioxooctahydro-4H,9H-furo [3″,2″:2′,3′]cyclopenta [1′,2′:3,4]furo[2,3-b]pyrrol-8-yl benzoate] | 76.9% | 66.9% | 87% | 
